Measurements from patent US10047051B2, “Substituted pyridines and method of use” (AbbVie S.á{acute over (.)}r.l., priority 2015, dated 2018).

Assays:
Assay type in all cases: cell-based
CFTR G551D mutant = molecular target: T1, CFTR G551D mutant (Homo sapiens, UniProt P13569, G551D); assay: YFP-halide influx assay for the CFTR-G551D mutation (HEK293 cells); conditions: forskolin 10.67 μM
T1 construct: expressed in transfected cells; host or cells: HEK293 cells, reverse transfection with plasmids
In short: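 HEK293 cells reverse-transfected with CFTR G551D and halide-sensitive YFP (H148Q/I152L/F47L), expressed 24 h at 37 °C. YFP fluorescence quenching recorded for 7 s after I⁻ injection. Response = 1−F/F0; EC50 derived from 1−F/F0 vs compound concentration.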

CFTR ΔF508 mutant = molecular target: T2, CFTR ΔF508 mutant (Homo sapiens, UniProt P13569, DEL508-508); assay: YFP-halide influx assay for the CFTR-ΔF508 mutation (CFBE41o- cells); conditions: forskolin 10.67 μM; for EC50: from (1−F/F0) vs concentration plot
T2 construct: expressed in transfected cells; host or cells: CFBE41o- cells, adenoviral transduction
In short: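 CFBE41o- cells transduced with adenovirus expressing CFTR ΔF508 and halide-sensitive YFP H148Q/I152L/F47L, then held 24 h at 27° C or with a CFTR modulator 24 h at 37° C. Iodide-induced quench recorded 2 min; EC50 from (1−F/F0) at 36 s versus concentration.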

CFTR-G1349D = molecular target: T3, CFTR-G1349D (Homo sapiens, UniProt P13569, G1349D); assay: YFP-halide influx assay for the CFTR-G1349D
T3 construct: expressed in transfected cells
In short: (§1)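 HEK293 cells reverse-transfected with a CFTR mutant and YFP H148Q/I152L/F47L halide sensor, expressed 24 h at 37° C. Fluorescence quenching followed for 7 s after I⁻ injection; activity expressed as 1−F/F0, with EC50 fitted from 1−F/F0 versus compound concentration.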

CFTR G551D/ΔF508 = molecular target: T4, CFTR G551D/ΔF508 (Homo sapiens, UniProt P13569, G551D); assay: TECC assay, primary bronchial epithelial cells, CFTR G551D/ΔF508; conditions: primary bronchial epithelial cells heterozygous G551D/ΔF508, acute mode, increase in Isc after forskolin
T4 construct: host or cells: primary human bronchial epithelial cells from CF patients heterozygous G551D/ΔF508, no corrector pre-treatment
Procedure: (§2) The TECC (Tranepithelial Clamp Circuit, EP-design) assay measures the functionality of the cystic fibrosis Transmembrane Conductance regulator (CFTR) by measuring the short circuit current (Isc) generated over the basolateral and apical membrane of lung epithelial cells. In TECC the transepithelial potential PD and transepithelial resistance (Rt) are measured in an open circuit and transformed to Isc using Ohm's law. 24 Wells can be measured simultaneously allowing a higher throughput compared to Ussing chambers.
(§3) For this purpose, bronchial epithelial cells isolated from CF patients homozygous for the CFTR ΔF508 mutation (hAEC-CF, Epithelix) are plated on type IV collagen-coated Transwell® supports (Costar). Human airway epithelia are generated by provision of an air-liquid interface for 21 days to form well-differentiated polarized cultures that resemble in vivo pseudo-stratified ciliated epithelium (Fulcher, M. L., Gabriel, S., Burns, K. A., Yankaskas, J. R., Randell, S. H., 2005. Well-differentiated human airway epithelial cell cultures. Methods Mol. Med. 107, 183-206). In the case of the homozygous ΔF508 CFTR samples, the differentiated cells are treated with 3 μM VX809 (2626 South Loop West, Suite 225, Houston, Tex. 77054 USA, Cat n# S1565) to allow sufficient expression of properly folded CFTR protein on the membrane (48 hours basolateral treatment and 24 hours apical treatment), prior to electrophysiological recordings. For heterozygous G551D/ΔF508, differentiated cells are used as such for the recordings.
(§4) Information on the compounds can be retrieved on the homozygous ΔF508 CFTR samples looking at increased CFTR activity when compounds are added in an acute mode or in a chronic mode. On G551D/ΔF508 CFTR heterozygous samples compounds are added in an acute mode to the differentiated cells.
(§5) For the acute mode, for electrophysiological recording, the human airway epithelia are mounted in the TECC heating plate for electrophysiological measurement and kept at 37° C. The epithelia are bathed in a NaCl-Ringer solution (120 mM NaCl, 25 mM NaHCO3, 1.2 mM CaCl2, 1.2 mM MgCl2, 0.8 mM KH2PO4, 0.8 mM K2HPO4, pH 7.4, 5 mM glucose) on both the basolateral and apical sides. Apical amiloride is used to inhibit the endogenous ENaC currents while forkolin is applied on both apical and basolateral side to stimulate CFTR. After forskolin triggering, compounds are added on both sides to test their potential for increasing CFTR gating. Measurements are done during a 20 minute timeframe with recordings every 2 minutes. The increase in Isc is used as a measure for the increased CFTR activity, EC50 values can be generated by measuring impact of different concentrations of compound on Isc on primary cells, for this purpose each transwell is treated with a different compound concentration. Inh-172, an inhibitor specific for CFTR, is used to test the specificity of the tested compounds.
When subjected to this protocol, the following values were obtained. The difference between ΔIsc measured as DMSO (baseline), and the ΔIsc measured with the compound tested.

CFTR-R117H = molecular target: T5, CFTR-R117H (Homo sapiens, UniProt P13569, R117H); assay: YFP-halide influx assay for the CFTR-R117H
T5 construct: expressed in transfected cells
In short: as §1

CFTR ΔF508 = molecular target: T6, CFTR ΔF508 (Homo sapiens, UniProt P13569, DEL508-508); assay: TECC assay, primary bronchial epithelial cells, CFTR ΔF508; conditions: primary bronchial epithelial cells of CF patients homozygous for CFTR ΔF508, treated with 3 μM VX809, increase in Isc after forskolin
T6 construct: host or cells: primary human bronchial epithelial cells from CF patients homozygous for ΔF508, pre-treated with VX809
Procedure: as §2, §3, §4, §5
For the chronic mode, the differentiated cells are treated with 3 μM VX809 (2626 South Loop West, Suite 225, Houston, Tex. 77054 USA, Cat n# S1565) and potentiator compounds at different concentrations (48 hours basolateral treatment and 24 hours apical treatment), prior to electrophysiological recordings. For electrophysiological recording, the human airway epithelia are mounted in the TECC heating plate for electrophysiological measurement and kept at 37° C. The epithelia are bathed in a NaCl-Ringer solution (120 mM NaCl, 25 mM NaHCO3, 1.2 mM CaCl2, 1.2 mM MgCl2, 0.8 mM KH2PO4, 0.8 mM K2HPO4, pH 7.4, 5 mM glucose) on both the basolateral and apical sides. Apical amiloride is used to inhibit the endogenous ENaC currents while forkolin is applied on both apical and basolateral side to stimulate CFTR. Measurements are done during a 20 minute timeframe with recordings every 2 minutes. […]

CFTR-S549N = molecular target: T7, CFTR-S549N (Homo sapiens, UniProt P13569, S549N); assay: YFP-halide influx assay for the CFTR-S549N; design: % Activation: concentration or dose not given beside the values
T7 construct: expressed in transfected cells
In short: as §1

CFTR-G178R = molecular target: T8, CFTR-G178R (Homo sapiens, UniProt P13569, G178R); assay: YFP-halide influx assay for the CFTR-G178R
T8 construct: expressed in transfected cells
In short: as §1

T8 sequence (P13569 whole entry G178R): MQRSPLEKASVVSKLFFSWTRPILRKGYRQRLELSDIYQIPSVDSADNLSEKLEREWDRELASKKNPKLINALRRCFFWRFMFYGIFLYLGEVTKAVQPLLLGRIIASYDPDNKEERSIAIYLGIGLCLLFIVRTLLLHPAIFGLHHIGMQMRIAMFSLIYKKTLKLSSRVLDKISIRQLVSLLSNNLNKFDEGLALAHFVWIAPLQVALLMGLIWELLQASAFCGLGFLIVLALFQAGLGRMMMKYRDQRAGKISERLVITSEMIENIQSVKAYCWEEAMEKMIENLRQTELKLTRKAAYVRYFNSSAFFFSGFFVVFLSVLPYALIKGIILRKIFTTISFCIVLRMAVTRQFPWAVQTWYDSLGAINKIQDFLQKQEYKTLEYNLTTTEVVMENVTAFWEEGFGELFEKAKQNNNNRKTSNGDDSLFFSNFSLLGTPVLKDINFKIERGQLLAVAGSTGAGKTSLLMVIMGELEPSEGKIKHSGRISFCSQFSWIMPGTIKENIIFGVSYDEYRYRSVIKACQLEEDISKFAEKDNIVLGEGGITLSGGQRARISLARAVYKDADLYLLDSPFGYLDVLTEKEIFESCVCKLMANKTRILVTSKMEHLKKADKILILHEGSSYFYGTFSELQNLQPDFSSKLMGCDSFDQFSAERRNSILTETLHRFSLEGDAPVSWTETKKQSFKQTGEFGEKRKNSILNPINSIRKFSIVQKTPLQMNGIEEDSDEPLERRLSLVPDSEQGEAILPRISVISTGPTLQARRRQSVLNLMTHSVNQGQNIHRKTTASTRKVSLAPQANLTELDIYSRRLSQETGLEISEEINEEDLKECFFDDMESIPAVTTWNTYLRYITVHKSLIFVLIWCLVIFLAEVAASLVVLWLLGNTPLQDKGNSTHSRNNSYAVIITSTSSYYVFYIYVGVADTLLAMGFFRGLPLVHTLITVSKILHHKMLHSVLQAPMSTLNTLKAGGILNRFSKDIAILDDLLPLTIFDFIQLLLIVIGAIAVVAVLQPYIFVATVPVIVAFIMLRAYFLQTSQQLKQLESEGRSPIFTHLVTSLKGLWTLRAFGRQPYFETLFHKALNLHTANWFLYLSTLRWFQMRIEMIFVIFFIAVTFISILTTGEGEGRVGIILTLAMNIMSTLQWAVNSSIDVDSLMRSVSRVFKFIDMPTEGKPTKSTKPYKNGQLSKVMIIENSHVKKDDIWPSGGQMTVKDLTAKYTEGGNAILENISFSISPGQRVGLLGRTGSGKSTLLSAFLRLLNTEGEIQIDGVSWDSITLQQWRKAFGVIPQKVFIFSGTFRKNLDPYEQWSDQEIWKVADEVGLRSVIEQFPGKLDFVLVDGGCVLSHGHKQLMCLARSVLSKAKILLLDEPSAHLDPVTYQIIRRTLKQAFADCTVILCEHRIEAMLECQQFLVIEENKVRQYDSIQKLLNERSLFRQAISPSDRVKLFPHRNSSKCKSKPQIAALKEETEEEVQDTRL
T1 sequence (P13569 whole entry G551D): as the sequence (P13569 whole entry G178R) above, with R178G, G551D counted along it
T4 sequence (P13569 whole entry F508del/G551D): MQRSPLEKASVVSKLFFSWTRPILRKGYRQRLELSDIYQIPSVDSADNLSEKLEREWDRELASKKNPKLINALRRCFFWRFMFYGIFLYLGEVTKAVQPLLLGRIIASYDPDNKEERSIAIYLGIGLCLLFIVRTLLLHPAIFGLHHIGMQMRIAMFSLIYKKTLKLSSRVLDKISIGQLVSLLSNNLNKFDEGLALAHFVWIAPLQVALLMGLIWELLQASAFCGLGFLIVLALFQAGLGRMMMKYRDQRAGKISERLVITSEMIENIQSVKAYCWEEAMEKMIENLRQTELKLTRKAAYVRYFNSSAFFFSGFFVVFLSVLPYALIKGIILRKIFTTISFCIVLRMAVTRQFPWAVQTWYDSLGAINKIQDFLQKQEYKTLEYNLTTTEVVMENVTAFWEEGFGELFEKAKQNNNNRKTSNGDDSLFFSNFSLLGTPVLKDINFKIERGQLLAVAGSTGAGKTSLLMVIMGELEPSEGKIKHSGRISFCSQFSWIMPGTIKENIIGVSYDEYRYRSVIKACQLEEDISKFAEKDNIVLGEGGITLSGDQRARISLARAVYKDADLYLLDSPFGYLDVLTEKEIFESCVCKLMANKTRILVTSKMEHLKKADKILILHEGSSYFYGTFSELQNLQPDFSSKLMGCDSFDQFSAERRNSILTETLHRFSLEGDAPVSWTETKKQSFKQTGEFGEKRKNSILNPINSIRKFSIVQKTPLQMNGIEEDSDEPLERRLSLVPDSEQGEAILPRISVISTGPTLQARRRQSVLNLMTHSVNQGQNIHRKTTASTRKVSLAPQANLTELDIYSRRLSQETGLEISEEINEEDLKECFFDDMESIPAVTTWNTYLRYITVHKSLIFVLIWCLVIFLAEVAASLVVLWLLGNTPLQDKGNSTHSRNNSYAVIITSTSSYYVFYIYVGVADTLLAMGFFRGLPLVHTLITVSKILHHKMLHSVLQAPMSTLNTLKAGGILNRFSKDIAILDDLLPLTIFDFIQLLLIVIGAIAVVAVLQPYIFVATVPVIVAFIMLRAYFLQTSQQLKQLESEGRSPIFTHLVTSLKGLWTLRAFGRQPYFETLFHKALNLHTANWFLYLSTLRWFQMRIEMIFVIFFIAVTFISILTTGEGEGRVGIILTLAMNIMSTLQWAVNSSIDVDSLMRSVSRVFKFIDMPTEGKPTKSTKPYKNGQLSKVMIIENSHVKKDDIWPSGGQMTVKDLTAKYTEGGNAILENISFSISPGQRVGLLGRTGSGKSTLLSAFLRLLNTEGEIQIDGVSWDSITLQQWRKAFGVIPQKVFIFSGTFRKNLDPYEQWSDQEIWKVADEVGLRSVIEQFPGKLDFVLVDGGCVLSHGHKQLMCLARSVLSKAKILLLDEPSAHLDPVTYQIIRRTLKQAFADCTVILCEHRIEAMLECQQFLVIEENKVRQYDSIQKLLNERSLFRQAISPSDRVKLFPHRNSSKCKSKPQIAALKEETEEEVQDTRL
T2 sequence (P13569 with tags, fused parts or gaps DEL508-508): as the sequence (P13569 whole entry F508del/G551D) above, with D550G counted along it
T3 sequence (P13569 whole entry G1349D): as the sequence (P13569 whole entry G178R) above, with R178G, G1349D counted along it
T7 sequence (P13569 whole entry S549N): as the sequence (P13569 whole entry G178R) above, with R178G, S549N counted along it
T5 sequence (P13569 whole entry R117H): as the sequence (P13569 whole entry G178R) above, with R117H, R178G counted along it
T6 sequence (P13569 with tags, fused parts or gaps DEL508-508): as the sequence (P13569 whole entry F508del/G551D) above, with D550G counted along it

| Compound | % Activation (CFTR G551D mutant) [%] | EC50 (CFTR G551D mutant) [nM] | % Activation (CFTR ΔF508 mutant) [%] | EC50 (CFTR ΔF508 mutant) [nM] | % Activation (CFTR-G1349D) [%] | EC50 (CFTR-G1349D) [nM] | EC50 (CFTR G551D/ΔF508) [nM] | % Activation (CFTR-R117H) [%] | EC50 (CFTR-R117H) [nM] | EC50 (CFTR ΔF508) [nM] | % Activation (CFTR-S549N) [%] | EC50 (CFTR-S549N) [nM] | % Activation (CFTR-G178R) [%] | EC50 (CFTR-G178R) [nM] |
| --- | --- | --- | --- | --- | --- | --- | --- | --- | --- | --- | --- | --- | --- | --- |
| Nc1cc(S(=O)(=O)c2ccccc2OC(F)(F)F)cnc1C(=O)N1CC(O)(C(F)(F)F)C1 [Compound 85, (3-amino-5-{[2-(trifluoromethoxy)phenyl]sulfonyl}pyridin-2-yl)[3-hydroxy-3-(trifluoromethyl)azetidin-1-yl]methanone] | 51.7 | 28.9 | 110.5 | 1 | 90.89 | 2.73 | 9.5 | 103 | 3.83 | – | 104.8 | 3.29 | 77.69 | 3.29 |
| CC(C)OCC(O)CNC(=O)c1ncc(S(=O)(=O)c2ccc(C(F)(F)F)cc2)cc1N (stereo not drawn) [Compound 92, 3-amino-N-[2-hydroxy-3-(propan-2-yloxy)propyl]-5-{[4-(trifluoromethyl)phenyl]sulfonyl}pyridine-2-carboxamide] | 79.0 | 210 | 118.5 | 7.2 | 91.24 | 30.6 | 144 | 94.77 | 97.7 | – | 98.96 | 131 | 104.9 | 145 |
| Nc1cc(S(=O)(=O)N2CCC(C(F)(F)F)CC2)cnc1C(=O)NCC(O)C(F)(F)F (stereo not drawn) [Compound 95, 3-amino-N-(3,3,3-trifluoro-2-hydroxypropyl)-5-{[4-(trifluoromethyl)piperidin-1-yl]sulfonyl}pyridine-2-carboxamide] | 54.2 | 300 | 104.0 | 5.7 | 71.97 | 75.4 | 487 | 88.62 | 138 | – | 65.61 | 86.4 | 80.8 | 226 |

Further lines, results first:

| % Activation (CFTR G551D mutant) [%] | EC50 (CFTR G551D mutant) [nM] | % Activation (CFTR ΔF508 mutant) [%] | EC50 (CFTR ΔF508 mutant) [nM] | % Activation (CFTR-G1349D) [%] | EC50 (CFTR-G1349D) [nM] | EC50 (CFTR G551D/ΔF508) [nM] | % Activation (CFTR-R117H) [%] | EC50 (CFTR-R117H) [nM] | EC50 (CFTR ΔF508) [nM] | % Activation (CFTR-S549N) [%] | EC50 (CFTR-S549N) [nM] | % Activation (CFTR-G178R) [%] | EC50 (CFTR-G178R) [nM] | Compound |
| --- | --- | --- | --- | --- | --- | --- | --- | --- | --- | --- | --- | --- | --- | --- |
| 73.5 | 723 | 103.5 | 69.1 | 63.0 | 549 | 7720 | 82.7 | 479 | – | – | – | – | – | Nc1cc(S(=O)(=O)c2ccc(OC(F)(F)F)cc2)cnc1C(=O)NCC1CCCO1 (stereo not drawn) [Compound 7, 3-amino-N-(tetrahydrofuran-2-ylmethyl)-5-{[4-(trifluoromethoxy)phenyl]sulfonyl}pyridine-2-carboxamide] |
| 48.8 | 458 | 96.6 | 8 | – | – | 461 | – | – | 38.3 | – | – | – | – | Nc1cc(S(=O)(=O)c2ccc(OC(F)(F)F)cc2)cnc1C(=O)NCCC(O)C(F)(F)F (stereo not drawn) [Compound 52, 3-amino-N-(4,4,4-trifluoro-3-hydroxybutyl)-5-{[4-(trifluoromethoxy)phenyl]sulfonyl}pyridine-2-carboxamide] |
